Measurements reported in patent US20200140489A1 (priority 2013, published 2020).
pEC50, pIC50: −log10 of the molar value. Where two headings read alike, the source gives them in different places. Positions of bridges follow the written chain, without caps; N, C: chain ends. Non-standard residues stand in square brackets, D forms with d. Residues, ends and D or L forms follow the SMILES beside them. NMeF = CN[C@@H](Cc1ccccc1)C(=O)O; NMeN = CN[C@@H](CC(N)=O)C(=O)O; NMeC = CN[C@@H](CS)C(=O)O; Nphe = O=C(O)CNCc1ccccc1

What was measured:
[1] = target: T1, AgrC-III (Staphylococcus aureus, UniProt O33590); assay: Hemolysis assay, wild-type group-III strain MN8, rabbit red blood cells
T1 sequence (O33590 1-425): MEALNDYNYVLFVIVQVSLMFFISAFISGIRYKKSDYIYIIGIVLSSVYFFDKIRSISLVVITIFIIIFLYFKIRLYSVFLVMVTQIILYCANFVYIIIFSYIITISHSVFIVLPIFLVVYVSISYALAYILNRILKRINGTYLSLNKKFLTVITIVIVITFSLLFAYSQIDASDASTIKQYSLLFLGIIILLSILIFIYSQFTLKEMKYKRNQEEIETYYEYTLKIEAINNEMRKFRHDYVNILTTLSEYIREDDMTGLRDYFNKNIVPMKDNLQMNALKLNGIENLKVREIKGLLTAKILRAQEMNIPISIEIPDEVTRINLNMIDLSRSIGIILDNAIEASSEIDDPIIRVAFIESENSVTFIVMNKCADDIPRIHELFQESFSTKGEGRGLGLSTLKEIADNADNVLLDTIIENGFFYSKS

[2] = target: T2, AgrC-II (Staphylococcus aureus, UniProt O33587); format: cell-based, S. aureus; conditions: for pIC50: read-out: AgrC-II IC50, fluorescence reporter strain
T2 sequence (O33587 1-437): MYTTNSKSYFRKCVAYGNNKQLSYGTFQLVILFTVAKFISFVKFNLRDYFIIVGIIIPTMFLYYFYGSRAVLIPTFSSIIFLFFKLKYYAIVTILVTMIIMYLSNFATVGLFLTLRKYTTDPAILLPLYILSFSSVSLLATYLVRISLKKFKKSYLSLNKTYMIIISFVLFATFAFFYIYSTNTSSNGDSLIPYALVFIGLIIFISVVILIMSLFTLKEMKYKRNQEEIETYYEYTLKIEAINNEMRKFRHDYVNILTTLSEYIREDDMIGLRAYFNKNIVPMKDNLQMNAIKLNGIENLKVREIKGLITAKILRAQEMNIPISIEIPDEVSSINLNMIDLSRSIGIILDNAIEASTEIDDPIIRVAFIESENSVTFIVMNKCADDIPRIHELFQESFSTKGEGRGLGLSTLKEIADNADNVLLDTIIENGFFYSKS

[3] = target: T3, AgrC-IV (Staphylococcus aureus, UniProt Q309Z2); assay: Hemolysis assay, wild-type group-IV strain RN4850, rabbit red blood cells; conditions: for pIC50: read-out: AgrC-IV IC50, hemolysis assay, 200 fM − 10 μM
T3 sequence (Q309Z2 1-430): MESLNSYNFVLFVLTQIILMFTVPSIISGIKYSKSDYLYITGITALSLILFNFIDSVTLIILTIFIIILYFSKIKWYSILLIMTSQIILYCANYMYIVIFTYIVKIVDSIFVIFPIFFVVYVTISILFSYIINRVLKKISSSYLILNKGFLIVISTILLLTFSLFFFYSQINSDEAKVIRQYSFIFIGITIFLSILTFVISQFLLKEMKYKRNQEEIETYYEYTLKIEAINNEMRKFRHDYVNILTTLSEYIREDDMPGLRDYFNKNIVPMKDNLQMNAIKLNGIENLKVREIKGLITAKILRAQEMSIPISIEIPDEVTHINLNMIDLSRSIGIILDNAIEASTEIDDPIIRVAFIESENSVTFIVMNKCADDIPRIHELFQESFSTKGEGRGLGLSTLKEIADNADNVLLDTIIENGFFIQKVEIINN

[4] = target: T1, AgrC-III; format: cell-based, S. aureus; conditions: for pIC50: read-out: AgrC-III IC50, fluorescence reporter strain
[5] = target: T2, AgrC-II; assay: Hemolysis assay, wild-type group-II strain RN6923, rabbit red blood cells; conditions: for pIC50: read-out: AgrC-II IC50, hemolysis assay, 200 fM − 10 μM
[6] = target: T4, AgrC-I (Staphylococcus aureus, UniProt O07911); format: cell-based, S. aureus; conditions: for pIC50: read-out: AgrC-I IC50
T4 sequence (O07911 1-430): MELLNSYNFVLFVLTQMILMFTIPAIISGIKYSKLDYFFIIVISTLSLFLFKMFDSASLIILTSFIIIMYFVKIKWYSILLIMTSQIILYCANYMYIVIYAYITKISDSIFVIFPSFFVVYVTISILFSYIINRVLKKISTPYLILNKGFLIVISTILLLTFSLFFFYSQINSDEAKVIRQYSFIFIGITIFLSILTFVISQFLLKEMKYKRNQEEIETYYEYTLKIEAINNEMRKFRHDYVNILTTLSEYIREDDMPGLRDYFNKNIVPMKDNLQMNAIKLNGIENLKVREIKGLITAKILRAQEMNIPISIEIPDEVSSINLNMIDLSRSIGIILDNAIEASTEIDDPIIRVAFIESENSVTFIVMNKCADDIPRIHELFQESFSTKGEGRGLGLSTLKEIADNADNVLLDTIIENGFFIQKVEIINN

[7] = target: T3, AgrC-IV; format: cell-based, S. aureus; conditions: for pIC50: read-out: AgrC-IV IC50, fluorescence reporter strain
[8] = target: T4, AgrC-I; assay: Hemolysis assay, wild-type group-I strain RN6390B, rabbit red blood cells; conditions: for pIC50: read-out: AgrC-I IC50, hemolysis assay, 200 fM − 10 μM
[9] = test system: TSST-1 production in wild-type group-III S. aureus (MN8); format: cell-based
[10] = target: T1, AgrC-III; conditions: read-out: AgrC-III EC50; β-lactamase reporter strain; 2.5 pM − 10 μM
[11] = read-out: AgrC-III IC50, 200 fM − 10 μM
[12] = AIPs tested over 200 fM − 10 μM or (b1) 2.5 pM − 10 μM, triplicate
[13] = read-out: AgrC-III IC50, selected second-generation analogues, 200 fM − 10 μM
[14] = second-generation analogues, fluorescence reporter strain, 200 fM − 10 μM
[15] = second-generation analogues, 200 fM − 10 μM
[16] = selected second-generation analogues
[17] = fluorescence reporter strain, AIPs tested over 200 fM − 10 μM or (b1) 2.5 pM − 10 μM, triplicate

SMILES | pIC50 [1, 11] | pIC50 [2, 12] | pIC50 [7, 12] | pIC50 [1, 13] | pIC50 [2, 15] | pIC50 [3, 16] | pIC50 [7, 15] | pIC50 [4, 15] | pIC50 [5, 16] | pIC50 [8, 16] | other results
CC[C@H](C)[C@@H]1NC(=O)[C@H](Cc2ccccc2)NC(=O)[C@H](CC(=O)O)NC(=O)[C@@H](NC(=O)[C@@H](NC(=O)[C@H](CO)NC(=O)[C@@H](N)Cc2ccc(O)cc2)[C@@H](C)O)CSC(=O)[C@H](CCSC)NC1=O [AIP-I, Y-S-T-(C-D-F-I-M), reference compound] (H-YSTCDFIM; thioester 4-C) | 8.21 | 8.10 | – | – | – | – | – | – | – | – | pIC50 [3]: 6.72; pIC50 [4, 12]: 9.28; pIC50 [5]: 8.48
CC(C)C[C@@H]1NC(=O)[C@H](CO)NC(=O)[C@H](CO)NC(=O)[C@@H](NC(=O)[C@H](C)NC(=O)[C@H](CC(N)=O)NC(=O)[C@@H](NC(=O)CN)C(C)C)CSC(=O)[C@H](Cc2ccccc2)NC1=O [AIP-II, G-V-N-A-(C-S-S-L-F), reference compound] (H-GVNACSSLF; thioester 5-C) | 8.44 | – | 9.40 | – | – | – | – | – | – | – | pIC50 [6]: 8.79; pIC50 [3]: 8.92; pIC50 [4, 12]: 9.27; pIC50 [8]: 9.05
CC[C@H](C)[C@H](N)C(=O)N[C@@H](CC(N)=O)C(=O)N[C@H]1CSC(=O)[C@H](CC(C)C)NC(=O)[C@H](CC(C)C)NC(=O)[C@H](Cc2ccccc2)NC(=O)[C@H](C)NC1=O [AIP-III D4A, I-N-(C-A-F-L-L)] (H-INCAFLL; thioester 3-C) | 9.79 | – | – | – | – | – | – | – | – | – | fold increase of inhibitory activity relative to AIP-III ([6]; gfp reporter, group-I): at least 10 fold; fold more active inhibitor than tAIP-I D2A ([6]; gfp reporter, group-I): ~10 fold; reduction of TSST-1 levels [9]: 80%; fold increase of inhibitory activity relative to AIP-III ([2]; gfp reporter, group-II): at least 10 fold; fold more active inhibitor than tAIP-I D2A ([2]; gfp reporter, group-II): ~10 fold; fold more active than tAIP-I D2A in the hemolysis assay ([3]; group IV strain): three; pIC50 [3]: 9.97; fold increase of inhibitory activity relative to AIP-III ([7]; gfp reporter, group-IV): at least 10 fold; fold more active inhibitor than tAIP-I D2A ([7]; gfp reporter, group-IV): ~10 fold; fold increase of inhibitory activity relative to AIP-III ([4]; gfp reporter, group-III): at least 10 fold; fold more active inhibitor than tAIP-I D2A ([4]; gfp reporter, group-III): ~10 fold; fold more active than tAIP-I D2A in the hemolysis assay ([5]; group-II strain): 40 fold
CC(C)C[C@@H]1NC(=O)[C@H](Cc2ccccc2)NC(=O)[C@H](C)NC(=O)[C@@H](NC(=O)[C@H](CC(N)=O)NC(=O)[C@H](C)N)CSC(=O)[C@H](CC(C)C)NC1=O [AIP-III I1A/D4A, A-N-(C-A-F-L-L)] (H-ANCAFLL; thioester 3-C) | – | – | – | 9.26 | 8.63 | 9.55 | 10.00 | 9.55 | 9.10 | 10.99 | pIC50 [6, 14]: 9.48; fold change against AgrC-II relative to AIP-III D4A ([2]; gfp reporter): < 5 fold; fold lower concentrations inhibiting hemolysis than AIP-III D4A ([8]; group-I): eight
CC(C)C[C@@H]1NC(=O)[C@H](Cc2ccccc2)NC(=O)[C@H](C)NC(=O)[C@@H](NC(=O)[C@H](C)NC(=O)[C@H](C)N)CSC(=O)[C@H](CC(C)C)NC1=O [AIP-III I1A/N2A/D4A, A-A-(C-A-F-L-L)] (H-AACAFLL; thioester 3-C) | – | – | – | 9.61 | 9.22 | 9.85 | 10.79 | 10.13 | 10.22 | 10.39 | pIC50 [6, 14]: 9.52
CC[C@H](C)[C@H](N)C(=O)N[C@@H](C)C(=O)N[C@H]1CSC(=O)[C@H](CC(C)C)NC(=O)[C@H](CC(C)C)NC(=O)[C@H](Cc2ccccc2)NC(=O)[C@H](C)NC1=O [AIP-III N2A/D4A, I-A-(C-A-F-L-L)] (H-IACAFLL; thioester 3-C) | – | – | – | 9.67 | 9.69 | 9.91 | 10.66 | 10.18 | 10.18 | 10.44 | pIC50 [6, 14]: 9.48
CC[C@H](C)[C@H](N)C(=O)N[C@@H](CC(N)=O)C(=O)N(C)[C@H]1CSC(=O)[C@H](CC(C)C)NC(=O)[C@H](CC(C)C)NC(=O)[C@H](Cc2ccccc2)NC(=O)[C@H](CC(=O)O)NC1=O [AIP-III N-Me-C3, I-N-(NMeC-D-F-L-L)] (H-IN[NMeC]DFLL; thioester 3-C) | – | 6.87 | 6.97 | – | – | – | – | – | – | – | pIC50 [6, 17]: 6.86; pEC50 [10]: < 6.00
CC[C@H](C)[C@H](N)C(=O)N[C@@H](CC(N)=O)C(=O)N[C@H]1CSC(=O)[C@H](CC(C)C)NC(=O)[C@H](CC(C)C)NC(=O)[C@H](Cc2ccccc2)N(C)C(=O)[C@H](CC(=O)O)NC1=O [AIP-III N-Me-F5, I-N-(C-D-NMeF-L-L)] (H-INCD[NMeF]LL; thioester 3-C) | – | 8.71 | 8.18 | – | – | – | – | – | – | – | pIC50 [6, 17]: 8.35; pEC50 [10]: 7.30
CC[C@H](C)[C@H](N)C(=O)N(C)[C@@H](CC(N)=O)C(=O)N[C@H]1CSC(=O)[C@H](CC(C)C)NC(=O)[C@H](CC(C)C)NC(=O)[C@H](Cc2ccccc2)NC(=O)[C@H](CC(=O)O)NC1=O [AIP-III N-Me-N2, I-NMeN-(C-D-F-L-L)] (H-I[NMeN]CDFLL; thioester 3-C) | – | 8.50 | 8.02 | – | – | – | – | – | – | – | pIC50 [6, 17]: 8.09; pEC50 [10]: 7.72
CC[C@H](C)[C@H](N)C(=O)N[C@@H](CC(N)=O)C(=O)N[C@H]1CSC(=O)[C@H](CC(C)C)NC(=O)[C@H](CC(C)C)NC(=O)CN(Cc2ccccc2)C(=O)[C@H](CC(=O)O)NC1=O [AIP-III nF5, I-N-(C-D-nF-L-L)] (H-INCD[Nphe]LL; thioester 3-C) | – | 7.12 | 9.08 | – | – | – | – | – | – | – | pIC50 [6, 17]: 7.86; fold reduction of potency for AgrC-II versus AIP-III ([2]; gfp reporter): 13 fold; pEC50 [10]: 6.69; fold increase of inhibitory activity relative to AIP-III ([7]; gfp reporter, group-IV): 10 fold; pIC50 [4, 12]: < 6.00
CC[C@H](C)[C@@H]1NC(=O)[C@H](Cc2ccccc2)NC(=O)[C@H](Cc2ccc(O)cc2)NC(=O)[C@@H](NC(=O)[C@@H](NC(=O)[C@H](CO)NC(=O)[C@@H](N)Cc2ccc(O)cc2)[C@@H](C)O)CSC(=O)[C@H](CCSC)NC1=O [AIP-IV, Y-S-T-(C-Y-F-I-M), reference compound] (H-YSTCYFIM; thioester 4-C) | 8.83 | 9.43 | – | – | – | – | – | – | – | – | pIC50 [4, 12]: 9.34; pIC50 [5]: 10.05
CC(=O)N[C@H]1CSC(=O)[C@H](CC(C)C)NC(=O)[C@H](CC(C)C)NC(=O)[C@H](Cc2c[nH]c3ccccc23)NC(=O)[C@H](C)NC1=O [Ac-(C-A-W-L-L)] (Ac-CAWLL; thioester 1-C) | – | – | – | 8.97 | 8.72 | 9.71 | 10.44 | 9.29 | 9.90 | 9.33 | pIC50 [6, 14]: 9.04
CC[C@H](C)[C@@H]1NC(=O)[C@H](Cc2ccccc2)NC(=O)[C@H](C)NC(=O)[C@@H](NC(C)=O)CSC(=O)[C@H](CCSC)NC1=O [tAIP-I D2A, Ac-(C-A-F-I-M), reference compound] (Ac-CAFIM; thioester 1-C) | 9.07 | – | – | – | – | – | – | – | – | – | pIC50 [3]: 9.44; pIC50 [5]: 8.60; pIC50 [8]: 8.84
CC(=O)N[C@H]1CSC(=O)[C@H](CC(C)C)NC(=O)[C@H](CC(C)C)NC(=O)[C@H](Cc2ccccc2)NC(=O)[C@H](C)NC1=O [tAIP-III D2A, Ac-(C-A-F-L-L)] (Ac-CAFLL; thioester 1-C) | – | – | – | 9.71 | 9.05 | 9.51 | – | – | 9.15 | 9.48 | reduction of TSST-1 levels [9]: 80%
CC(=O)N[C@H]1CSC(=O)[C@H](CC(C)C)NC(=O)[C@H](CC(C)C)NC(=O)[C@H](Cc2ccc(O)cc2)NC(=O)[C@H](C)NC1=O [tAIP-III D2A/F3Y, Ac-(C-A-Y-L-L)] (Ac-CAYLL; thioester 1-C) | – | – | – | 9.58 | 8.94 | 9.87 | 10.51 | 9.41 | 9.69 | 9.55 | pIC50 [6]: 9.55
